The numbers were not newly measured in patent US11123318B2 (APR APPLIED PHARMA RESEARCH S.A., priority 2017, dated 2021), which cites them from elsewhere.

Each structure is given as a SMILES string.

Assay in data set [1]: not given
This is another data set of the same source.

Take `O=C(O)Cc1ccccc1Nc1c(Cl)cccc1Cl` [Diclofenac, 2-(2-[2,6-diclorofenilammino]phenyl) ethanoic acid]: for the setting “after oral administration”, the “absorption through the gastrointestinal tract” value is on record as “completely absorbed” and the “time to peak plasma level” value is at most 1 h. Besides, for the setting “in vivo”, the “administered dose eliminated as the metabolite by the renal route” value was “About 60%”; the “administered dose excreted in the bile and in the faeces” value is reported as “About 30%”; the “excreted as unchanged substance by the renal route” value is reported as “less than 1%”. In addition, the solubility in water entry in data set [1] was “low solubility”.
